This experiment deals with T1, human CB2 receptors (Homo sapiens, UniProt P34972).
T1 construct: expressed in transfected cells; membranes used
The experiment can be described thus: Affinity for the human CB2 cannabinoid receptors: inhibition of [3H]-CP55940 binding to transfected CHO-K1 cell membranes. To be noted: [3H]-CP55940 1 nM, CHO-K1 membranes expressing human CB2, Cheng-Prusoff correction. How it is done:
The affinity of the compounds of the invention for the human CB2 receptors is determined by measuring the inhibition of the binding of [^3H]-CP55940 to transfected CHO-K1 cell membrane preparations.
The cells are collected with 0.5 mM of EDTA and centrifuged at 500 g for 5 minutes at 4° C. The pellet is re-suspended in phosphate buffered saline medium (PBS) and centrifuged at 500 g for 5 minutes at 4° C. The pellet is re-suspended in a Tris 50 mM buffer medium at pH 7.4 and centrifuged at 500 g for 5 minutes at 4° C. The cells are lysed by sonication and centrifuged at 39,000 g for 10 minutes at 4° C. The pellet is re-suspended in the Tris 50 mM buffer medium at pH 7.4 and centrifuged at 50,000 g for 10 minutes at 4° C. The membranes obtained in this last pellet are stored at −80° C.
Measurement of the competitive inhibition of the binding of the [^3H]-CP55940 to the CB2 receptors is carried out in duplicate using 96-well polypropylene plates. The cell membranes (10 μg of proteins/well) are incubated with the [^3H]-CP55940 (1 nM) for 60 minutes at 25° C. in a Tris-HCl 50 mM buffer medium, pH 7.4, comprising 0.1% bovine serum albumin (BSA), 5 mM of MgCl2, and 50 μg/ml of bacitracin.
The filters are washed with Tris-HCl 50 mM buffer, pH 7.4 at 0-4° C. and the radioactivity present is determined using a counter (Packard Top Count).
The specific binding is obtained by subtracting the non-specific binding (determined in the presence of 0.1 μM of WIN55212-2 from the total binding). The data are analyzed by computer-assisted non-linear regression (MDL). For each test, a Cheng-Prusoff correction is made in order to convert the IC50 to the inhibition constant, Ki.
where [L] is the concentration of the radioligand used in the test and Kd is the radioligand equilibrium disassociation constant.

Like-named read-outs stand apart in the source and are kept apart here. Some results are limits rather than exact numbers.

T1 sequence (P34972 whole entry): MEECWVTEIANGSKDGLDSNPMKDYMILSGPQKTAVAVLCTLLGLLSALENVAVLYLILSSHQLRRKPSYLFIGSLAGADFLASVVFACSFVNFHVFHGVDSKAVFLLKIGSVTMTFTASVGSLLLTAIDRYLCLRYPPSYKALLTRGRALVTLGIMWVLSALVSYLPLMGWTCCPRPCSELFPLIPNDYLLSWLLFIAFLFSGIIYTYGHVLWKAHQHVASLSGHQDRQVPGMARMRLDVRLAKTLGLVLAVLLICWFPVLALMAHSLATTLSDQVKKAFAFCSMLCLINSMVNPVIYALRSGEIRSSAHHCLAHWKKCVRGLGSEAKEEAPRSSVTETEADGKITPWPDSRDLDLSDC

A word on the Ki: it is a dissociation constant, usually derived from enzyme kinetics or from competition with a known ligand. Consider `CC(C)CC(=O)Nc1ccc(CCOC(=O)c2ccc3c(c2)C(C)(C)CCC3(C)C)cc1` [Example 58], for which the Ki runs as follows: (read-out: Ki < 0.5 μM) under 0.5 µM; (read-out: Ki < 5 μM) under 5 µM.

For `Cc1cc2c(cc1C(=O)OCCc1ccc(NC(=O)C3CCC3)cc1)CCCC2(C)C` [Example 36], the Ki runs as follows: (read-out: Ki < 0.5 μM) under 0.5 µM; (read-out: Ki < 5 μM) under 5 µM.

`CCCNC(=O)Nc1ccc(CCOC(=O)c2ccc3c(c2)C(C)(C)CCC3(C)C)cc1` [Example 29, 2-(4-{[(propylamino)carbonyl]amino}phenyl)ethyl 5,5,8,8-tetramethyl-5,6,7,8-tetrahydronaphthalene-2-carboxylate]: the Ki is under 0.5 µM (read-out: Ki < 0.5 μM) and under 5 µM (read-out: Ki < 5 μM).

Take `CC(C)(C)c1cc(-c2nnc(CCc3ccc(NC(=O)C4CCC4)cc3)s2)cc(C(C)(C)C)c1` [Example 46]: the Ki reads like this: (read-out: Ki < 0.5 μM) under 0.5 µM; (read-out: Ki < 5 μM) under 5 µM.

For the compound `CC(C)(C)c1cc(-c2nnc(Cc3ccc(/N=C(/N)c4cccs4)cc3)o2)cc(C(C)(C)C)c1` [Example 2], the Ki was under 0.5 µM (read-out: Ki < 0.5 μM) and under 5 µM (read-out: Ki < 5 μM).

`CC1(C)CCC(C)(C)c2cc(-c3nnc(NCc4ccc(NC(=O)C5CCC5)cc4)o3)ccc21` [Example 25]: the Ki (read-out: Ki < 0.5 μM) was under 0.5 µM and the Ki (read-out: Ki < 5 μM) is under 5 µM.

On to `C=CCNC(=O)Nc1ccc(CCc2nnc(-c3cc(C(C)(C)C)cc(C(C)(C)C)c3)o2)cc1` [Example 17], for which the Ki runs as follows: (read-out: Ki < 0.5 μM) under 0.5 µM; (read-out: Ki < 5 μM) under 5 µM.

With `CCCS(=O)(=O)Nc1ccc(CCOC(=O)c2ccc3c(c2)C(C)(C)CCC3(C)C)cc1` [Example 71], the Ki was under 0.5 µM (read-out: Ki < 0.5 μM) and under 5 µM (read-out: Ki < 5 μM).

As to `CC1(C)CCC(C)(C)c2cc(C(=O)OCCc3ccc(NS(=O)(=O)C4CC4)cc3)ccc21` [Example 72], the Ki was under 0.5 µM (read-out: Ki < 0.5 μM) and under 5 µM (read-out: Ki < 5 μM).

On to `CC(C)(C)c1cc(-c2nnc(CCc3ccc(NC(=O)C4CCC4)cc3)o2)cc(C(C)(C)C)c1` [Example 16], for which the Ki (read-out: Ki < 0.5 μM) was under 0.5 µM and the Ki (read-out: Ki < 5 μM) is under 5 µM.

In the case of `CC1(C)CCc2cc(C(=O)OCCc3ccc(NC(=O)C4CCC4)cc3)ccc2O1` [Example 42], the Ki is under 0.5 µM (read-out: Ki < 0.5 μM) and under 5 µM (read-out: Ki < 5 μM).

Regarding `CC1(C)CCC(C)(C)c2cc(C(=O)OCCc3ccc(NC(=O)Cc4ccccc4)cc3)ccc21` [Example 67], the Ki runs as follows: (read-out: Ki < 0.5 μM) under 0.5 µM; (read-out: Ki < 5 μM) under 5 µM.

Take `CCNC(=S)Nc1ccc(CCOC(=O)c2ccc3c(c2)C(C)(C)CCC3(C)C)cc1` [Example 76, 2-(4-{[(ethylamino)carbonothioyl]amino}phenyl)ethyl 5,5,8,8-tetramethyl-5,6,7,8-tetrahydronaphthalene-2-carboxylate]: the Ki by setting is: (read-out: Ki < 0.5 μM) under 0.5 µM; (read-out: Ki < 5 μM) under 5 µM.

Turning to `CC(C)C(=O)Nc1ccc(CCOC(=O)c2ccc3c(c2)C(C)(C)CCC3(C)C)cc1` [Example 56], the Ki is under 0.5 µM (read-out: Ki < 0.5 μM) and under 5 µM (read-out: Ki < 5 μM).

For `CC1(C)CCC(C)(C)c2cc(-c3coc(CCc4ccc(NC(=O)C5CCC5)cc4)n3)ccc21` [Example 39, N-(4-{2-[4-(5,5,8,8-tetramethyl-5,6,7,8-tetrahydronaphthalen-2-yl)-1,3-oxazol-2-yl]ethyl}phenyl)cyclobutanecarboxamide], the Ki reads like this: (read-out: Ki < 0.5 μM) under 0.5 µM; (read-out: Ki < 5 μM) under 5 µM.

For `Cc1cc2c(cc1C(=O)OCCc1ccc(NC(=O)C3CCC3)cc1)C(C)(C)CCC2` [Example 35], the Ki (read-out: Ki < 0.5 μM) is under 0.5 µM and the Ki (read-out: Ki < 5 μM) is under 5 µM.

For `C=CCNC(=S)Nc1ccc(CCOC(=O)c2ccc3c(c2)C(C)(C)CCC3(C)C)cc1` [Example 78], the Ki is under 0.5 µM (read-out: Ki < 0.5 μM) and under 5 µM (read-out: Ki < 5 μM).

Take `CC(C)(C)CC(=O)Nc1ccc(CCOC(=O)c2ccc3c(c2)C(C)(C)CCC3(C)C)cc1` [Example 59]: the Ki is under 0.5 µM (read-out: Ki < 0.5 μM) and under 5 µM (read-out: Ki < 5 μM).

On to `CC1(C)CCC(C)(C)c2cc(C(=O)OCCc3ccc(NC(=O)NC4CC4)cc3)ccc21` [Example 96], for which the Ki is under 0.5 µM (read-out: Ki < 0.5 μM) and under 5 µM (read-out: Ki < 5 μM).

`CCCNC(=O)Nc1ccc(CCc2nnc(-c3ccc4c(c3)C(C)(C)CCC4(C)C)o2)cc1` [Example 33]: the inhibition constant (Ki) (read-out: Ki < 0.5 μM) was under 0.5 µM and the Ki (read-out: Ki < 5 μM) is under 5 µM.

Consider `CC1(C)CCC(C)(C)c2cc(C(=O)OCCc3ccc(NC(=O)NCc4ccco4)cc3)ccc21` [Example 75], for which the inhibition constant Ki was under 0.5 µM (read-out: Ki < 0.5 μM) and under 5 µM (read-out: Ki < 5 μM).

In the case of `O=C(OCCc1ccc(NC(=O)C2CCC2)cc1)c1ccc2c(c1)C(=O)CCC2` [Example 7], the Ki (read-out: Ki < 5 μM) was under 5 µM.

As to `C=CCNC(=O)Nc1ccc(CNc2nnc(-c3ccc4c(c3)C(C)(C)CCC4(C)C)o2)cc1` [Example 26], the Ki is, setting by setting: (read-out: Ki < 0.5 μM) under 0.5 µM; (read-out: Ki < 5 μM) under 5 µM.

On to `O=C(OCCc1ccc(NC(=O)C2CCC2)cc1)c1ccc2c(c1)OCO2` [Example 34], for which the inhibitory constant (Ki) (read-out: Ki < 5 μM) was under 5 µM.

In the case of `C=CCNC(=O)Nc1ccc(CCc2nc(-c3ccc4c(c3)C(C)(C)CCC4(C)C)co2)cc1` [Example 40], the Ki is under 0.5 µM (read-out: Ki < 0.5 μM) and under 5 µM (read-out: Ki < 5 μM).

Take `C=CCCC(=O)Nc1ccc(CCOC(=O)c2ccc3c(c2)C(C)(C)CCC3(C)C)cc1` [Example 62]: the Ki was under 0.5 µM (read-out: Ki < 0.5 μM) and under 5 µM (read-out: Ki < 5 μM).

Take `CCC(C)C(=O)Nc1ccc(CCOC(=O)c2ccc3c(c2)C(C)(C)CCC3(C)C)cc1` (stereo not drawn) [Example 95]: the Ki is, setting by setting: (read-out: Ki < 0.5 μM) under 0.5 µM; (read-out: Ki < 5 μM) under 5 µM.

Take `CC1(C)CCC(C)(C)c2cc(C(=O)OCCc3ccc(NC(=O)CC4CC4)cc3)ccc21` [Example 91]: the Ki by setting is: (read-out: Ki < 0.5 μM) under 0.5 µM; (read-out: Ki < 5 μM) under 5 µM.

For `CCCNC(=O)Nc1ccc(CCc2nnc(-c3cc(C(C)(C)C)cc(C(C)(C)C)c3)s2)cc1` [Example 48, N-(4-{2-[5-(3,5-di-tert-butylphenyl)-1,3,4-thiadiazol-2-yl]ethyl}phenyl)-N′-propylurea], the Ki was under 0.5 µM (read-out: Ki < 0.5 μM) and under 5 µM (read-out: Ki < 5 μM).

Consider `Cc1cc2c(cc1C(=O)OCCc1ccc(NC(=O)C3CCC3)cc1)C(C)(C)CCC2(C)C` [Example 49], for which the inhibition constant (Ki) is, setting by setting: (read-out: Ki < 0.5 μM) under 0.5 µM; (read-out: Ki < 5 μM) under 5 µM.

With `CC(C)(C)c1cc(-c2nc(Cc3ccc(NC(=O)C4CCC4)cc3)no2)cc(C(C)(C)C)c1` [Example 19], the inhibitory constant (Ki) reads like this: (read-out: Ki < 0.5 μM) under 0.5 µM; (read-out: Ki < 5 μM) under 5 µM.

Regarding `CC1(C)CCC(C)(C)c2cc(C(=O)OCCc3ccc(NC(=O)C4CCOC4)cc3)ccc21` (stereo not drawn) [Example 92], the Ki was under 0.5 µM (read-out: Ki < 0.5 μM) and under 5 µM (read-out: Ki < 5 μM).

As for `CC1(C)CCC(C)(C)c2cc(C(=O)OCCc3ccc(NC(=O)C4CC4)cc3)ccc21` [Example 63], the Ki runs as follows: (read-out: Ki < 0.5 μM) under 0.5 µM; (read-out: Ki < 5 μM) under 5 µM.

With `CC1(C)CCC(C)(C)c2cc(-c3nc(CCc4ccc(NC(=O)C5CCC5)cc4)no3)ccc21` [Example 98], the Ki was under 0.5 µM (read-out: Ki < 0.5 μM) and under 5 µM (read-out: Ki < 5 μM).

For the compound `CCCNC(=O)Nc1ccc(Cc2noc(-c3cc(C(C)(C)C)cc(C(C)(C)C)c3)n2)cc1` [Example 21], the Ki is under 0.5 µM (read-out: Ki < 0.5 μM) and under 5 µM (read-out: Ki < 5 μM).

`CCC(C)NC(=O)Nc1ccc(CCOC(=O)c2ccc3c(c2)C(C)(C)CCC3(C)C)cc1` (stereo not drawn) [Example 82]: the Ki reads like this: (read-out: Ki < 0.5 μM) under 0.5 µM; (read-out: Ki < 5 μM) under 5 µM.

Take `CC1(C)CCNc2ccc(C(=O)OCCc3ccc(NC(=O)C4CCC4)cc3)cc21` [Example 50]: the Ki (read-out: Ki < 0.5 μM) was under 0.5 µM and the Ki (read-out: Ki < 5 μM) was under 5 µM.

Turning to `CC(C)(C)c1cc(-c2nnc(NCc3ccc(NC(=O)C4CCC4)cc3)o2)cc(C(C)(C)C)c1` [Example 23], where the note is “read-out: Ki < 5 μM”, the Ki was under 5 µM.

Regarding `CC1(C)CCC(C)(C)c2cc(C(=O)OCCc3ccc(NC(=O)C4CC45CCC5)cc3)ccc21` (stereo not drawn) [Example 90], the Ki runs as follows: (read-out: Ki < 0.5 μM) under 0.5 µM; (read-out: Ki < 5 μM) under 5 µM.

On to `C=CC(=O)Nc1ccc(CCOC(=O)c2ccc3c(c2)C(C)(C)CCC3(C)C)cc1` [Example 61], for which the Ki was under 0.5 µM (read-out: Ki < 0.5 μM) and under 5 µM (read-out: Ki < 5 μM).

Regarding `CC(C)(C)c1cc(-c2nnc(Cc3ccc(NC(=O)C4CCC4)cc3)o2)cc(C(C)(C)C)c1` [Example 12], the Ki reads like this: (read-out: Ki < 0.5 μM) under 0.5 µM; (read-out: Ki < 5 μM) under 5 µM.

For the compound `C=CCNC(=O)Nc1ccc(Cc2nnc(-c3cc(C(C)(C)C)cc(C(C)(C)C)c3)o2)cc1` [Example 13], the Ki was under 0.5 µM (read-out: Ki < 0.5 μM) and under 5 µM (read-out: Ki < 5 μM).

For the compound `CN1CCOc2cc(C(=O)OCCc3ccc(NC(=O)C4CCC4)cc3)ccc21` [Example 10], the Ki runs as follows: (read-out: Ki < 0.5 μM) under 0.5 µM; (read-out: Ki < 5 μM) under 5 µM.

With `CC1(C(=O)Nc2ccc(CCOC(=O)c3ccc4c(c3)C(C)(C)CCC4(C)C)cc2)CC1` [Example 87], the Ki by setting is: (read-out: Ki < 0.5 μM) under 0.5 µM; (read-out: Ki < 5 μM) under 5 µM.

As to `CC1(C)CCC(C)(C)c2cc(C(=O)OCCc3ccc(NC(=O)C4CCCCC4)cc3)ccc21` [Example 65], the Ki (read-out: Ki < 0.5 μM) was under 0.5 µM and the Ki (read-out: Ki < 5 μM) was under 5 µM.

Source of the values: US20100056507A1, “PHENYL DERIVATIVES AND THEIR USE AS A MEDICAMENT” (IPSEN PHARMA S.A.S., priority 2006, published 2010).
